This test has as its target human activated kallikrein enzyme (Homo sapiens, UniProt P03952). Nature of the test: Inhibition of human activated plasma kallikrein, fluorogenic PFR-AMC substrate, 500 pM enzyme format. Format: biochemical. The following applies: 500 pM activated kallikrein; 300 μM PFR-AMC; 30 min preincubation; 10 min room temperature; pH 7.5; read-out: Primary Dose Response Assay: Average EC50. In a few lines:
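Using fluorogenic PFR-AMC at 300 μM, cleavage by 500 pM human activated kallikrein ran 10 min at room temperature, read at 460 nm emission (380 nm excitation). Enzyme and compounds were first preincubated 30 min in 20 mM Tris pH 7.5, 150 mM NaCl, 1 mM EDTA, 0.1% PEG-400, 0.1% Triton X-100.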

pEC50: −log10 of the molar value.

human activated kallikrein enzyme, sequence (P03952 391-638 limits assumed): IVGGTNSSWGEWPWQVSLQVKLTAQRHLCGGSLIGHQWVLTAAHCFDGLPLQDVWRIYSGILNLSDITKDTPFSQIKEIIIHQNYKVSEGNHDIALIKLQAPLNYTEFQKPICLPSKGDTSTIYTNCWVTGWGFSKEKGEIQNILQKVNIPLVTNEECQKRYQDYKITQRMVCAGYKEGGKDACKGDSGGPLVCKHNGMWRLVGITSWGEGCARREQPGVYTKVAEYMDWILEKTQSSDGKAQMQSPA
human activated kallikrein enzyme, sequence (P03952 20-390 partner limits assumed): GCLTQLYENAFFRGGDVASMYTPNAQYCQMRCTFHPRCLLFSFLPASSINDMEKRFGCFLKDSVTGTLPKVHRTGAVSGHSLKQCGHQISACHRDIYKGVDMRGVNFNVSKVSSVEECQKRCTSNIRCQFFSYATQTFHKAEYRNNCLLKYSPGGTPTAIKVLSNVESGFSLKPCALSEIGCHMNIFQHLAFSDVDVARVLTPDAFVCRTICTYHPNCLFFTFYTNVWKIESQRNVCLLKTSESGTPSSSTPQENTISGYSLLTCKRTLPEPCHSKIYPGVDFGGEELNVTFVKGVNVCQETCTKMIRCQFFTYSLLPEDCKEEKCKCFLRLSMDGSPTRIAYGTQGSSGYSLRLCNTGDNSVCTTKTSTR

As a reminder, the pEC50 is −log10 of the EC50, conventionally taken in molar units. In the case of `Cc1cc2c(N)nccc2c(C)c1CNc1cc(OC(C)c2cn3nc(C4CC4)ccc3n2)ncn1` (centres unmarked) [Example 493, 6-(((6-(1-(6-cyclopropylimidazo[1,2-b]pyridazin-2-yl)ethoxy)pyrimidin-4-yl)amino)methyl)-5,7-dimethylisoquinolin-1-amine], the pEC50 is 7.00 to 8.00. To `Cc1cc2c(N)nccc2c(C)c1CN1C(=O)c2ncc(OCc3cn4cc(C5CC5)ccc4n3)cc21` [Example 494, 7-((1-amino-5,7-dimethylisoquinolin-6-yl)methyl)-4-((6-cyclopropylimidazo[1,2-a]pyridin-2-yl)methoxy)-2,7-diazabicyclo[4.2.0]octa-1,3,5-trien-8-one] belongs < 6.00; to `Cc1cc2c(N)nccc2c(C)c1CNc1cc(OCc2cn3cc(C4CC4)ccc3n2)cnc1C(=O)O` [Example 495, 3-(((1-amino-5,7-dimethylisoquinolin-6-yl)methyl)amino)-5-((6-cyclopropylimidazo[1,2-a]pyridin-2-yl)methoxy)picolinic acid], < 6.00; to `Cc1cc2c(N)nccc2c(C)c1CN1C(=O)c2ncc(NCc3cn4cc(C5CC5)ccc4n3)cc21` [Example 496, 7-((1-amino-5,7-dimethylisoquinolin-6-yl)methyl)-4-(((6-cyclopropylimidazo[1,2-a]pyridin-2-yl)methyl)amino)-2,7-diazabicyclo[4.2.0]octa-1,3,5-trien-8-one], 6.00 to 7.00. Take `Cc1cc2c(N)nccc2c(C)c1CNc1cc(NCc2cn3cc(C4CC4)ccc3n2)cnc1C(=O)O` [Example 497, 3-(((1-amino-5,7-dimethylisoquinolin-6-yl)methyl)amino)-5-(((6-cyclopropylimidazo[1,2-a]pyridin-2-yl)methyl)amino)picolinic acid]: the pEC50 was < 6.00. Regarding `Cc1cc2c(Nc3cc4c(cn3)nnn4Cc3cn4cc(C5CC5)ccc4n3)nccc2c(C)c1CN` [Example 502, 6-((l2-azanyl)methyl)-N-(1-((6-cyclopropylinmidazo[1,2-a]pyridin-2-yl)methyl)-1H-[1,2,3]triazolo[4,5-c]pyridin-6-yl)-5,7-dimethylisoquinolin-1-amine], the pEC50 is < 6.00.

For the molecule `Cc1cc2c(N)nccc2c(C)c1CNc1cc(=O)n(Cc2cn3c(=O)n(C4CC4)ccc3n2)cn1` [Example 505, 2-((4-(((1-amino-5,7-dimethylisoquinolin-6-yl)methyl)amino)-6-oxopyrimidin-1(6H)-yl)methyl)-6-cyclopropylimidazo[1,2-c]pyrimidin-5(6H)-one], the negative logarithm of the EC50 (pEC50) is < 6.00. To `Cc1cc2c(N)nccc2c(C)c1CNc1ncccc1NCc1cn2cc(C3CC3)ccc2n1` [Example 506, N^2-((1-amino-5,7-dimethylisoquinolin-6-yl)methyl)-N^3-((6-cyclopropylimidazo[1,2-a]pyridin-2-yl)methyl)pyridine-2,3-diamine] belongs 7.00 to 8.00; to `Cc1cc2c(N)nccc2c(C)c1CNC(=O)Nc1ncncc1OCc1cn2cc(C3CC3)ccc2n1` [Example 507, 1-((1-amino-5,7-dimethylisoquinolin-6-yl)methyl)-3-(5-((6-cyclopropylimidazo[1,2-a]pyridin-2-yl)methoxy)pyrimidin-4-yl)urea], 8.00 to 9.00.

As for `Cc1cc2c(N)nccc2c(C)c1CNc1nsc(NCc2cn3cc(C4CC4)ccc3n2)n1` [Example 511, N^3-((1-amino-5,7-dimethylisoquinolin-6-yl)methyl)-N^5-((6-cyclopropylimidazo[1,2-a]pyridin-2-yl)methyl)-1,2,4-thiadiazole-3,5-diamine], the pEC50 is 8.00 to 9.00. To `Cc1cc2c(N)nccc2c(C)c1CNc1cc(N2C[C@@H](O[Si](C)(C)C(C)(C)C)C[C@@H]2c2cn3cc(C4CC4)ccc3n2)ncn1` [Example 512, 6-(((6-((2R,4S)-4-((tert-butyldimethylsilyl)oxy)-2-(6-cyclopropylimidazo[1,2-a]pyridin-2-yl)pyrrolidin-1-yl)pyrimidin-4-yl)amino)methyl)-5,7-dimethylisoquinolin-1-amine] belongs 8.00 to 9.00.

The values are drawn from patent US20260374754A1, “N-((ISOQUINOLIN-6-YL)METHYL)-1H-PYRAZOLE-4-CARBOXAMIDE DERIVATIVES AS PLASMA KALLIKREIN INHIBITORS FOR THE TREATMENT OF HEREDITARY ANGIODEMA” (Takeda Pharmaceutical Company Limited, priority 2022, published 2026).
